{"source": "patent US20180325914A1", "about": "“INCREASING STORAGE OF VITAMIN A, VITAMIN D AND/OR LIPIDS” (Salk Institute for Biological Studies, priority 2014, published 2018)", "tested_on": "primary HSCs", "settings": "mRNA-Seq expression", "data": [{"smiles": "Cc1sc2c(c1C)C(c1ccc(Cl)cc1)=N[C@@H](CC(=O)OC(C)(C)C)c1nnc(C)n1-2", "note": "[JQ1, (S)-tert-butyl 2-(4-(4-chlorophenyl)-2,3,9-trimethyl-6H-thieno[3,2-f][1,2,4]triazolo[4,3-a][1,4]diazepin-6-yl)acetate]", "values": [{"measurement": "value_2, gene Kcnab1", "setting": "Day_6_JQ1", "result": 5.987}, {"measurement": "value_2, gene Kctd11", "setting": "Day_6_JQ1", "result": 40.3428}, {"measurement": "value_2, gene Kidins220", "setting": "Day_6_JQ1", "result": 34.7188}, {"measurement": "value_2, gene Lamb1", "setting": "Day_6_JQ1", "result": 116.83}, {"measurement": "value_2, gene Large", "setting": "Day_6_JQ1", "result": 40.5667}, {"measurement": "value_2, gene Lass6", "setting": "Day_6_JQ1", "result": 16.8557}, {"measurement": "value_2, gene Lbh", "setting": "Day_6_JQ1", "result": 311.939}, {"measurement": "value_2, gene Lrp1", "setting": "Day_6_JQ1", "result": 247.494}, {"measurement": "value_2, gene Lynx1", "setting": "Day_6_JQ1", "result": 16.3298}, {"measurement": "value_2, gene Maged1", "setting": "Day_6_JQ1", "result": 209.848}, {"measurement": "value_2, gene Map1lc3a", "setting": "Day_6_JQ1", "result": 83.7075}, {"measurement": "value_2, gene Marveld1", "setting": "Day_6_JQ1", "result": 50.0393}, {"measurement": "value_2, gene Mmab", "setting": "Day_6_JQ1", "result": 8.1326}, {"measurement": "value_2, gene Morc4", "setting": "Day_6_JQ1", "result": 8.504}, {"measurement": "value_2, gene Mpp6", "setting": "Day_6_JQ1", "result": 75.1224}, {"measurement": "value_2, gene Mxra8", "setting": "Day_6_JQ1", "result": 126.008}, {"measurement": "value_2, gene Mypop", "setting": "Day_6_JQ1", "result": 8.4789}, {"measurement": "value_2, gene Nans", "setting": "Day_6_JQ1", "result": 59.0594}, {"measurement": "value_2, gene Ngfrap1", "setting": "Day_6_JQ1", "result": 196.152}, {"measurement": "value_2, gene Nxn", "setting": "Day_6_JQ1", "result": 73.7521}, {"measurement": "value_2, gene Ogn", "setting": "Day_6_JQ1", "result": 68.5101}, {"measurement": "value_2, gene Olfml3", "setting": "Day_6_JQ1", "result": 169.404}, {"measurement": "value_2, gene Oxct1", "setting": "Day_6_JQ1", "result": 46.8229}, {"measurement": "value_2, gene Palm", "setting": "Day_6_JQ1", "result": 43.4603}, {"measurement": "value_2, gene Parva", "setting": "Day_6_JQ1", "result": 84.643}, {"measurement": "value_2, gene Pbxip1", "setting": "Day_6_JQ1", "result": 66.9739}, {"measurement": "value_2, gene Pcbp4", "setting": "Day_6_JQ1", "result": 31.1679}, {"measurement": "value_2, gene Pde5a", "setting": "Day_6_JQ1", "result": 4.315}, {"measurement": "value_2, gene Pdk3", "setting": "Day_6_JQ1", "result": 17.7734}, {"measurement": "value_2, gene Pdlim5", "setting": "Day_6_JQ1", "result": 120.722}, {"measurement": "value_2, gene Pdrg1", "setting": "Day_6_JQ1", "result": 77.2251}, {"measurement": "value_2, gene Pdzrn3", "setting": "Day_6_JQ1", "result": 35.4736}, {"measurement": "value_2, gene Pgp", "setting": "Day_6_JQ1", "result": 55.4841}, {"measurement": "value_2, gene Pgrmc1", "setting": "Day_6_JQ1", "result": 110.711}, {"measurement": "value_2, gene Plcxd2", "setting": "Day_6_JQ1", "result": 8.321}, {"measurement": "value_2, gene Plk4", "setting": "Day_6_JQ1", "result": 7.27}, {"measurement": "value_2, gene Ppic", "setting": "Day_6_JQ1", "result": 178.683}, {"measurement": "value_2, gene Pqlc3", "setting": "Day_6_JQ1", "result": 21.232}, {"measurement": "value_2, gene Prdx4", "setting": "Day_6_JQ1", "result": 90.3086}, {"measurement": "value_2, gene Prkab2", "setting": "Day_6_JQ1", "result": 26.0507}, {"measurement": "value_2, gene Prr11", "setting": "Day_6_JQ1", "result": 6.831}, {"measurement": "value_2, gene Prrx1", "setting": "Day_6_JQ1", "result": 33.6888}, {"measurement": "value_2, gene Ptk7", "setting": "Day_6_JQ1", "result": 33.1681}, {"measurement": "value_2, gene Ptprs", "setting": "Day_6_JQ1", "result": 25.6268}, {"measurement": "value_2, gene Rab11fip5", "setting": "Day_6_JQ1", "result": 18.6008}, {"measurement": "value_2, gene Rbfox2", "setting": "Day_6_JQ1", "result": 31.4181}, {"measurement": "value_2, gene Rbms3", "setting": "Day_6_JQ1", "result": 14.5408}, {"measurement": "value_2, gene Rhou", "setting": "Day_6_JQ1", "result": 27.2789}, {"measurement": "value_2, gene Rrm1", "setting": "Day_6_JQ1", "result": 37.9825}, {"measurement": "value_2, gene Rsu1", "setting": "Day_6_JQ1", "result": 115.627}, {"measurement": "value_2, gene Sepn1", "setting": "Day_6_JQ1", "result": 53.0761}, {"measurement": "value_2, gene Shisa4", "setting": "Day_6_JQ1", "result": 29.5421}, {"measurement": "value_2, gene Sidt2", "setting": "Day_6_JQ1", "result": 85.8124}, {"measurement": "value_2, gene Sil1", "setting": "Day_6_JQ1", "result": 25.0211}, {"measurement": "value_2, gene Smpd1", "setting": "Day_6_JQ1", "result": 40.8765}, {"measurement": "value_2, gene Snx7", "setting": "Day_6_JQ1", "result": 31.6545}, {"measurement": "value_2, gene Sparc", "setting": "Day_6_JQ1", "result": 3945.98}, {"measurement": "value_2, gene St3gal2", "setting": "Day_6_JQ1", "result": 27.017}, {"measurement": "value_2, gene St6galnac6", "setting": "Day_6_JQ1", "result": 21.1878}, {"measurement": "value_2, gene Ston1", "setting": "Day_6_JQ1", "result": 80.759}, {"measurement": "value_2, gene Suox", "setting": "Day_6_JQ1", "result": 13.7986}, {"measurement": "value_2, gene Synpo", "setting": "Day_6_JQ1", "result": 128.3}, {"measurement": "value_2, gene Tln2", "setting": "Day_6_JQ1", "result": 10.7793}, {"measurement": "value_2, gene Tmem176b", "setting": "Day_6_JQ1", "result": 232.156}, {"measurement": "value_2, gene Tubb2a", "setting": "Day_6_JQ1", "result": 56.747}, {"measurement": "value_2, gene Tulp4", "setting": "Day_6_JQ1", "result": 15.6577}, {"measurement": "value_2, gene Tyms", "setting": "Day_6_JQ1", "result": 9.8}, {"measurement": "value_2, gene Unc5b", "setting": "Day_6_JQ1", "result": 142.372}, {"measurement": "value_2, gene Vcl", "setting": "Day_6_JQ1", "result": 188.104}, {"measurement": "value_2, gene Wbp5", "setting": "Day_6_JQ1", "result": 336.924}, {"measurement": "value_2, gene Zfp449", "setting": "Day_6_JQ1", "result": 5.689}, {"measurement": "4833442J19Rik value_2 (Day_6_JQ1)", "setting": "primary HSCs, day 6 with JQ1", "result": 5.928}, {"measurement": "4930583H14Rik value_2 (Day_6_JQ1)", "setting": "primary HSCs, day 6 with JQ1", "result": 0.6572}, {"measurement": "AA467197 value_2 (Day_6_JQ1)", "setting": "primary HSCs, day 6 with JQ1", "result": 1.792}, {"measurement": "AI427809 value_2 (Day_6_JQ1)", "setting": "primary HSCs, day 6 with JQ1", "result": 0.3782}, {"measurement": "Acta1 value_2 (Day_6_JQ1)", "setting": "primary HSCs, day 6 with JQ1", "result": 5.299}, {"measurement": "Actg2 value_2 (Day_6_JQ1)", "setting": "primary HSCs, day 6 with JQ1", "result": 9.747}, {"measurement": "Adamtsl2 value_2 (Day_6_JQ1)", "setting": "primary HSCs, day 6 with JQ1", "result": 0.6746}, {"measurement": "Ak4 value_2 (Day_6_JQ1)", "setting": "primary HSCs, day 6 with JQ1", "result": 2.207}, {"measurement": "Alox5ap value_2 (Day_6_JQ1)", "setting": "primary HSCs, day 6 with JQ1", "result": 1.8396}, {"measurement": "Angpt4 value_2 (Day_6_JQ1)", "setting": "primary HSCs, day 6 with JQ1", "result": 2.216}, {"measurement": "Aoc3 value_2 (Day_6_JQ1)", "setting": "primary HSCs, day 6 with JQ1", "result": 0.7708}, {"measurement": "Atp1a3 value_2 (Day_6_JQ1)", "setting": "primary HSCs, day 6 with JQ1", "result": 1.07}, {"measurement": "Bcat1 value_2 (Day_6_JQ1)", "setting": "primary HSCs, day 6 with JQ1", "result": 1.171}, {"measurement": "C1qtnf2 value_2 (Day_6_JQ1)", "setting": "primary HSCs, day 6 with JQ1", "result": 1.262}, {"measurement": "C1qtnf5 value_2 (Day_6_JQ1)", "setting": "primary HSCs, day 6 with JQ1", "result": 5.303}, {"measurement": "Cck value_2 (Day_6_JQ1)", "setting": "primary HSCs, day 6 with JQ1", "result": 0.3139}, {"measurement": "Ccl12 value_2 (Day_6_JQ1)", "setting": "primary HSCs, day 6 with JQ1", "result": 0.2748}, {"measurement": "Cdh3 value_2 (Day_6_JQ1)", "setting": "primary HSCs, day 6 with JQ1", "result": 1.477}, {"measurement": "Cdh6 value_2 (Day_6_JQ1)", "setting": "primary HSCs, day 6 with JQ1", "result": 0.764}, {"measurement": "Chd3 value_2 (Day_6_JQ1)", "setting": "primary HSCs, day 6 with JQ1", "result": 4.386}, {"measurement": "Chst11 value_2 (Day_6_JQ1)", "setting": "primary HSCs, day 6 with JQ1", "result": 22.6881}, {"measurement": "Cnn1 value_2 (Day_6_JQ1)", "setting": "primary HSCs, day 6 with JQ1", "result": 5.628}, {"measurement": "Col6a2 value_2 (Day_6_JQ1)", "setting": "primary HSCs, day 6 with JQ1", "result": 6.3149}, {"measurement": "Col6a3 value_2 (Day_6_JQ1)", "setting": "primary HSCs, day 6 with JQ1", "result": 7.234}, {"measurement": "Col7a1 value_2 (Day_6_JQ1)", "setting": "primary HSCs, day 6 with JQ1", "result": 0.5444}, {"measurement": "Col11a1 value_2 (Day_6_JQ1)", "setting": "primary HSCs, day 6 with JQ1", "result": 4.303}, {"measurement": "Col15a1 value_2 (Day_6_JQ1)", "setting": "primary HSCs, day 6 with JQ1", "result": 0.2832}, {"measurement": "Csdc2 value_2 (Day_6_JQ1)", "setting": "primary HSCs, day 6 with JQ1", "result": 0.913}, {"measurement": "Cthrc1 value_2 (Day_6_JQ1)", "setting": "primary HSCs, day 6 with JQ1", "result": 4.104}, {"measurement": "D430019H16Rik value_2 (Day_6_JQ1)", "setting": "primary HSCs, day 6 with JQ1", "result": 1.971}, {"measurement": "Def6 value_2 (Day_6_JQ1)", "setting": "primary HSCs, day 6 with JQ1", "result": 0.8624}, {"measurement": "Des value_2 (Day_6_JQ1)", "setting": "primary HSCs, day 6 with JQ1", "result": 14.4745}, {"measurement": "Dkk2 value_2 (Day_6_JQ1)", "setting": "primary HSCs, day 6 with JQ1", "result": 0.918}, {"measurement": "Dok5 value_2 (Day_6_JQ1)", "setting": "primary HSCs, day 6 with JQ1", "result": 1.203}, {"measurement": "Dpep1 value_2 (Day_6_JQ1)", "setting": "primary HSCs, day 6 with JQ1", "result": 0.6357}]}]}
